Article PMC6930524, “A Prospective Repurposing of Dantrolene as a Multitarget Agent for Alzheimer’s Disease” (Molecules, 2019)

Columns and labels:
[1] = parameters: method as in PMID 11735355; conditions: cited from earlier work
physchem = conditions: pH 7.4
Description: In order to check the hydrolytic stability of DAN in buffered media, we used a HPLC method to check the stability of 20 μM DAN in phosphate buffered saline (PBS) at physiological pH of 7.4, at 37 °C.
The chromatographic data were acquired using the Waters Breeze software (version 3.20). Analyses were performed on a Phenomenex C18 column (150 × 4.6 mm i.d., 3 µm particle size; Phenomenex srl, Castel Maggiore, Italy) using a mobile phase of methanol/water (75:25 v/v), with aqueous formic acid 0.1%. The used flow rate was 0.5 mL/min and the injection volume was 20 µL. Wavelength UV-Vis detector was set at 380 nm.
The chemical stability of dantrolene sodium was evaluated in a phosphate buffered saline solution pH 7.4 (10 mM HPO4^2−/H2PO4^−, 100 mM NaCl) at 37 °C. Samples were tested in triplicate starting from three different stocks solution (1 mM), which were prepared separately.

[2] = biological target: T1, beta amyloid peptide 1–40 (Aβ40) (Homo sapiens, UniProt P05067); assay: Inhibition of Aβ40 self-aggregation (ThT fluorescence, 2% HFIP); format: biochemical; conditions: inhibitor 100 μM, Aβ40 30 μM
T1 construct: beta amyloid peptide 1–40 (Aβ40); purchased Sigma-Aldrich Europe (Milan, Italy)
T1 sequence (P05067 672-711 limits assumed): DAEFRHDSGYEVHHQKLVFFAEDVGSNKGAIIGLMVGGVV
From the text: As an additional proof of the potential of DAN in interfering with AD-related processes, we investigated the effects on the in vitro self-aggregation of beta amyloid peptide 1–40 (Aβ40) and Tau hexapeptide (306)VQIVYK(311) (PHF6). Aβ40 is used as an in vitro probe of the fibrillization process leading to amyloid fibrils and ultimately to senile plaques in AD [32], while PHF6 represents the highly proaggregating sequence of the repeated domain R3 of Tau protein, responsible of the formation of neurofibrillary tangles and other tauopathies in NDs. With this aim, we developed a fast screening method of Aβ40 aggregation using thioflavin T (ThT) as fluorescent probe and 2% 1,1,1,3,3,3-hexafluoro-2-propanol (HFIP) as aggregation enhancer. Regarding PHF6, we started from an already published methodology for the setup of an in-house method, with 2,2,2-trifluoroethanol (TFE) as the cosolvent. […] Quercetin was used as a standard reference for the inhibition of amyloid aggregation. The concentrations of inhibitors were 100 μM and 25 μM in Aβ40 and in PHF6 assay, respectively. […]
An already established assay was used in a 96-well plate procedure, using HFIP as aggregation enhancer. […] After addition of ThT, the fluorescence was read at 440/485 excitation/emission wavelength. […] Inhibition values were calculated by means of Prism.

SH-SY5Y cells = assay: DCF-DA assay of dopamine-induced ROS production; format: cell-based; conditions: dopamine 10 nM insult, compound 100 nM
Description: In order to get further information about the potential neuroprotective effects exerted by DAN, we tested it in a 2′,7′-dichlorofluorescin diacetate (DCF-DA) fluorescence-based assay, measuring the production of ROS induced by dopamine in cultured SH-SY5Y cells. Immortalized neuroblastoma cells are a widely used model for neuroprotection assays, while dopamine at a concentration of 10 nM acts as an inducer of oxidative stress, being metabolized by MAOs to form hydrogen peroxide. Once hydrolyzed and oxidized, DCF acts as the fluorescing probe of the OS state of cells. In the presence of an antioxidant, or even of a MAO inhibitor, ROS burden is lowered and DCF fluorescence decreased. […] Its activity is completely superimposable to that of phenelzine, a nonselective MAO inhibitor used as a positive control in Figure 5B [41]. […]
ROS production in SH-SY5Y cell line was detected using Cellular Reactive Oxygen Species Detection Assay Kit ([…]; Abcam, Cambridge, UK). […] After washing, the fluorescence was read immediately, and the readings were taken every 15 min in a 60-min time interval. Fluorescence signal at 535 nm (excitation at 485 nm) was measured using Tecan Infinite M1000 Pro (Tecan, Mannedorf, Switzerland).

[3] = cited from earlier work

Structure (SMILES): O=C1CN(/N=C/c2ccc(-c3ccc([N+](=O)[O-])cc3)o2)C(O)=N1 [Dantrolene]
- antioxidant potency, inhibition of Fe2+/thiocyanate peroxidation of linoleic acid [1]: high antioxidant potency
- recovery at 60 h, 20 μM (physchem): 92%
- inhibition at 100 µM [2]: 56%
- reduction of ROS oxidation of DCF (SH-SY5Y cells): very effective
- concentration found in the cytosolic compartment in vivo [3]: 10 µM
